Data from ChEMBL document CHEMBL4765469, “2-((3,5-Dinitrobenzyl)thio)quinazolinones: Potent Antimycobacterial Agents Activated by Deazaflavin (F)-Dependent Nitroreductase (Ddn)” (J Med Chem, 2021).
Values after ≈ are worked out from the molar mass of the structure shown. Active and inactive are the calls of the source. No cut-off for these calls is given here.

Key:
[1] = test system: Mycobacterium tuberculosis; experiment: Antitubercular activity against Mycobacterium tuberculosis resistant mutants generated by plating on 7H11/0ADC agar plates in presence of 3.75 to 15 uM 2-((3,5-Dinitrobenzyl)thio)quinazolin-4(3H)-one followed by sensitivity testing; format: functional, organism-based
[2] = test system: Mycobacterium tuberculosis; experiment: Antitubercular activity against Mycobacterium tuberculosis 5A1 with fbiC mutant deficient in cofactor F420 biosynthesis assessed as inhibition of all visible growth grown under 7H9/ glucose liquid culture incubated for 7 to 14 days; format: functional; conditions: time 7-14 day
[3] = test system: Mycobacterium tuberculosis; experiment: Antitubercular activity against Mycobacterium tuberculosis T2 expressing nitroreductase rv3547 A76E mutant assessed as inhibition of all visible growth grown under 7H9/ glucose liquid culture incubated for 7 to 14 days; format: functional; conditions: time 7-14 day
[4] = test system: Mycobacterium tuberculosis; experiment: Antitubercular activity against Mycobacterium tuberculosis T3 with fgd mutant deficient in F420 reduction assessed as inhibition of all visible growth grown under 7H9/ glucose liquid culture incubated for 7 to 14 days; format: functional; conditions: time 7-14 day
[5] = Ratio of MIC for antitubercular activity against Mycobacterium tuberculosis resistant mutants generated by plating on 7H11/0ADC agar plates in presence of 3.75 to 15 uM 2-((3,5-Dinitrobenzyl)thio)quinazolin-4(3H)-one to MIC for antitubercular activity against wild type Mycobacterium tuberculosis H37Rv ATCC 27294; format: functional

## C[C@]1(COc2ccc(N3CCC(Oc4ccc(OC(F)(F)F)cc4)CC3)cc2)Cn2cc([N+](=O)[O-])nc2O1
[1]
  Activity: inactive

## O=c1[nH]c(SCc2cc([N+](=O)[O-])cc([N+](=O)[O-])c2)nc2cccnc12
[2]
  MIC>99: 37 µM (≈ 13.3 µg/mL)
[3]
  MIC>99: 50 µM (≈ 18 µg/mL)
[4]
  MIC>99: 37 µM (≈ 13.3 µg/mL)

## O=[N+]([O-])c1cn2c(n1)OC[C@@H](OCc1ccc(OC(F)(F)F)cc1)C2
[1]
  Activity: inactive

## Cc1ccc2nc(SCc3cc([N+](=O)[O-])cc([N+](=O)[O-])c3)[nH]c(=O)c2c1
[2]
  MIC>99: >50 µM
[3]
  MIC>99: >50 µM
[4]
  MIC>99: >50 µM

## O=c1[nH]c(SCc2cc([N+](=O)[O-])cc([N+](=O)[O-])c2)nc2ccc(F)cc12
[2]
  MIC>99: >50 µM
[3]
  MIC>99: >=50 uM
[4]
  MIC>99: >=50 uM

## NNC(=O)c1ccncc1
[1]
  Activity: Active

## O=c1[nH]c(SCc2cc([N+](=O)[O-])cc([N+](=O)[O-])c2)nc2ccc(N3CCOCC3)cc12
[2]
  MIC>99: >=50 uM
[3]
  MIC>99: 19 µM (≈ 8.43 µg/mL)
[4]
  MIC>99: >=50 uM

## O=c1[nH]c(SCc2cc([N+](=O)[O-])cc([N+](=O)[O-])c2)nc2ccc(Br)cc12
[2]
  MIC>99: >50 µM
[3]
  MIC>99: >50 µM
[4]
  MIC>99: >50 µM

## O=c1[nH]c(SCc2cc([N+](=O)[O-])cc([N+](=O)[O-])c2)nc2ccccc12
[2]
  MIC>99: >50 µM
[5]
  Ratio: > 40
[3]
  MIC>99: 37 µM (≈ 13.3 µg/mL)
[4]
  MIC>99: 37 µM (≈ 13.3 µg/mL)

## CN1CCN(c2ccc3nc(SCc4cc([N+](=O)[O-])cc([N+](=O)[O-])c4)[nH]c(=O)c3c2)CC1
[2]
  MIC>99: 37 µM (≈ 16.9 µg/mL)
[3]
  MIC>99: 37 µM (≈ 16.9 µg/mL)
[4]
  MIC>99: 25 µM (≈ 11.4 µg/mL)

## CO[C@H]1/C=C/O[C@@]2(C)Oc3c(C)c(O)c4c(O)c(c(/C=N/N5CCN(C)CC5)c(O)c4c3C2=O)NC(=O)/C(C)=C\C=C\[C@H](C)[C@H](O)[C@@H](C)[C@@H](O)[C@@H](C)[C@H](OC(C)=O)[C@@H]1C
[1]
  Activity: Active
